{"source": "patent US7833513B2", "about": "“Treatment of Alzheimer's Disease” (Rhode Island Hospital, priority 2004, dated 2010)", "key": {"insulin receptor [1]": {"biological_target": "T1, insulin receptor (Rattus norvegicus, UniProt P15127)", "T1 construct": "from tissue; host or cells: rat brain (temporal lobe)", "T1 sequence (P15127 27-759 limits assumed)": "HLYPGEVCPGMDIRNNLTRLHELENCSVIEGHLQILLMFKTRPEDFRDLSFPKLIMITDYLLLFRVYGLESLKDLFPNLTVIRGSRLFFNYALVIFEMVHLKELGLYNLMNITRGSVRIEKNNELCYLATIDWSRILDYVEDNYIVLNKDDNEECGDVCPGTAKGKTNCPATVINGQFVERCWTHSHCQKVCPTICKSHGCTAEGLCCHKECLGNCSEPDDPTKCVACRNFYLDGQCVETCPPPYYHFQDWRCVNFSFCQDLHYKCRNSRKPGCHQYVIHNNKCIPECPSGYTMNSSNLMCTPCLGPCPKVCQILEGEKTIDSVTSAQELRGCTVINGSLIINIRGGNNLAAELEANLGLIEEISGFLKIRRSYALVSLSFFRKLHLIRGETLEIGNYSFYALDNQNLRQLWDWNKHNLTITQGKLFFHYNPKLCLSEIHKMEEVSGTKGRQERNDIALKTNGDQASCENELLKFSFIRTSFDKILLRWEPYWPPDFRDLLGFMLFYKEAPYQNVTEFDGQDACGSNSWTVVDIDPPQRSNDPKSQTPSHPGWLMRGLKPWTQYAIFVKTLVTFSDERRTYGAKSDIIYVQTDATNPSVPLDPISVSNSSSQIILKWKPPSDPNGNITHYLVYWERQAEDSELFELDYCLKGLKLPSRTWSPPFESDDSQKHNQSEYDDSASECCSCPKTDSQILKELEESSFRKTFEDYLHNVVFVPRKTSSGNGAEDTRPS", "T1 sequence (P15127 764-1383 limits assumed)": "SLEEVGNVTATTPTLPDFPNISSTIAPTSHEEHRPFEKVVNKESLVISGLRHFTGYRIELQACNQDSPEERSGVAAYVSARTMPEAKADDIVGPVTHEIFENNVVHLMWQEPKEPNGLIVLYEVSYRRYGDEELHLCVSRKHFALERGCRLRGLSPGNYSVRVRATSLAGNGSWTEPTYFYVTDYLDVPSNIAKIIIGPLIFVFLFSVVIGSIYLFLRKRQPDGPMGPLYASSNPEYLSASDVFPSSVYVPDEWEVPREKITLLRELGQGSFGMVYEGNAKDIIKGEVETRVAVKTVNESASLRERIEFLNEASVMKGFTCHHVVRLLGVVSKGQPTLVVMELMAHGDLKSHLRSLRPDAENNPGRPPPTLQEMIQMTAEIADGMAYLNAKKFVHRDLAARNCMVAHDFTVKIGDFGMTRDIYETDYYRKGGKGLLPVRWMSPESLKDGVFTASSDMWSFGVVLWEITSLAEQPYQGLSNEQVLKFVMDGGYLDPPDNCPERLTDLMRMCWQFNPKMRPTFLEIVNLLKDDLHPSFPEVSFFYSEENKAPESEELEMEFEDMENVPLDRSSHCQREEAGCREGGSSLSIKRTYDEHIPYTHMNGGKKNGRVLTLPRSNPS", "assay": "ic-STZ ± PPAR agonist: equilibrium and saturation binding to insulin receptors in the brain", "format": "in vivo, Long Evans rat", "settings": "for BMAX, insulin receptor saturation binding in brains of treated rats: [125I]-insulin tracer, pooled brain membranes, 4 weeks after ic-STZ ± IP PPAR agonist; for mean insulin receptor binding: temporal lobe and cerebellum", "method": "(§1) On the same day, sub-sets of the ic-STZ group were given a single intra-peritoneal injection of vehicle (saline), or a PPAR-α (GW7647; 25 ug/Kg), PPAR-δ (L-165,041; 2 μg/Kg), or PPAR-γ (F-L-Leu; 20 μg/Kg) activator (CalBiochem, Carlsbad, Calif.). […] In addition, at 4 weeks of age, memory and learning were evaluated using a Morris Water Maze (R. W. Hickey, M. Akino, S. Strausbaugh, G. M. De Courten-Myers. Use of the Morris water maze and acoustic startle chamber to evaluate neurologic injury after asphyxial arrest in rats. Pediatr Res 39(1) (1996), 77-84). The procedures and use of rats in these experiments were approved by the Lifespan-Rhode Island Hospital IACUC committee.\n(§2) Membrane protein extracted from fresh frozen brain tissue was used for competitive equilibrium and saturation binding assays. For total binding in equilibrium binding assays, duplicate samples were incubated in 100 μl reactions containing binding buffer (100 mM HEPES, pH 8.0, 118 mM NaCl, 1.2 mM MgSO4, 8.8 mM dextrose, 5 mM KCl, 1% bovine serum albumin) and 100 nCi/ml of [^125I] […] To measure total binding in saturation binding assays, samples from 8-12 brains per group were pooled in equal proportions, and duplicate samples were incubated in 100 μl reactions containing binding buffer and 0.0031 to 1 μCi/ml of [^125I] […] To detect non-specific binding in the equilibrium and saturation binding assays, duplicate reactions were incubated with the same concentrations of radiolabeled tracer plus 0.1 μM unlabeled (cold) competitive ligand. After 16 hours incubation at 4° C., bound radiolabeled tracer was precipitated with bovine gamma globulin and polyethylene glycol 8000. The precipitate (bound ligand) and supernatant (free ligand) fractions were counted in an LKB CompuGamma CS Gamma counter. Specific binding was calculated by subtracting fmols of non-specific binding, i.e. amount bound in the presence of excess cold ligand, from total fmols bound in the absence of unlabeled competitive ligand. GraphPad Prism 4 software (San Diego, Calif.) was used to calculate saturation binding (BMAX) and binding affinity (Kd) for each data set."}, "IGF-I receptor": {"biological_target": "T2, IGF-I receptor (Rattus norvegicus, UniProt P24062)", "T2 construct": "from tissue; host or cells: rat brain (temporal lobe)", "T2 sequence (P24062 31-737 limits assumed)": "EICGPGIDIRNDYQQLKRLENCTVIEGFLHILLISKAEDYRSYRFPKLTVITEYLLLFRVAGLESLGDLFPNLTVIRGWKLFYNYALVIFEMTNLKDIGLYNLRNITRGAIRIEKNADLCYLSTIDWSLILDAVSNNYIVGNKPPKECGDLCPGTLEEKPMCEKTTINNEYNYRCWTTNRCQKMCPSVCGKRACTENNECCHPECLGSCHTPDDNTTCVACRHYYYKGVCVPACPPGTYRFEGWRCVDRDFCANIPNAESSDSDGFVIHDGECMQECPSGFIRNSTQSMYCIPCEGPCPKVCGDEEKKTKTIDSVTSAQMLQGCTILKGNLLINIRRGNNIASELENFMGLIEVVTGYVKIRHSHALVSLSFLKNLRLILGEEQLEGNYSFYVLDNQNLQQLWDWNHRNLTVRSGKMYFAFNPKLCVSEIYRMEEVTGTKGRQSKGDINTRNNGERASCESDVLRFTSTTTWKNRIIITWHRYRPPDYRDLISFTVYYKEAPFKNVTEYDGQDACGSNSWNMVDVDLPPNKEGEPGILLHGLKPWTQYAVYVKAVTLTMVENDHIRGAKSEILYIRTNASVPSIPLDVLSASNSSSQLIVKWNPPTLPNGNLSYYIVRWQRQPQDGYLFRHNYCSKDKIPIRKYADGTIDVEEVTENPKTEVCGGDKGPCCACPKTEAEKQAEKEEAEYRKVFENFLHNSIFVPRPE", "T2 sequence (P24062 742-1370 limits assumed)": "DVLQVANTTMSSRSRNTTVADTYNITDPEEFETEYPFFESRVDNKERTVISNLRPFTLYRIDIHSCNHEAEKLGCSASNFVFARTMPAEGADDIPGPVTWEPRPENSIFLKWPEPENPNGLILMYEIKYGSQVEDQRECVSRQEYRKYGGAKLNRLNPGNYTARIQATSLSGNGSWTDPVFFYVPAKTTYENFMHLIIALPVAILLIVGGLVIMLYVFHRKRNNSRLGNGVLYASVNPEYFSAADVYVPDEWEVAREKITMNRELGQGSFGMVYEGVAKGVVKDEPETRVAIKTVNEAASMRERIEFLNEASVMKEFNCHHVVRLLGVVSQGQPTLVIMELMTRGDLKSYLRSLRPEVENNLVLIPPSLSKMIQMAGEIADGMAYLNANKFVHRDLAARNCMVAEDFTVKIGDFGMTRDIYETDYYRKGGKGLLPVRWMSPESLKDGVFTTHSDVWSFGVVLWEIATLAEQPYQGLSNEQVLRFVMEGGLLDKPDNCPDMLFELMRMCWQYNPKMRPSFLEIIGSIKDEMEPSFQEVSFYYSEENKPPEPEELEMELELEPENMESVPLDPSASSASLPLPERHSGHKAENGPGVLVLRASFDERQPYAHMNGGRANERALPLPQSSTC", "assay": "ic-STZ ± PPAR agonist: equilibrium and saturation binding to IGF-I receptors in the brain", "format": "in vivo, Long Evans rat", "settings": "for BMAX, IGF-1 receptor saturation binding in brains of treated rats: [125I]-IGF-I tracer, pooled brain membranes, 4 weeks after ic-STZ ± IP PPAR agonist; for IGF-I receptor binding: cerebellum", "method": "as §1, §2"}, "insulin receptor [2]": {"system": "insulin receptor", "format": "in vivo, Long Evans rat", "settings": "temporal lobe membrane extracts", "quoted_text": "(§3) Membrane proteins were extracted from fresh frozen temporal lobe tissue (˜100 mg) by Polytron (Glen Mils Inc., Clifton, N.J.) homogenization in 5 volumes of NP-40 lysis buffer (50 mM Tris-HCl, pH 7.5, 150 mM NaCl, 1 mM EDTA, 2 mM EGTA, 1% NP-40) containing protease (1 mM PMSF, 0.1 mM TPCK, 1 μg/ml aprotinin, 1 μg/ml pepstatin A, 0.5 μg/ml leupeptin, 1 mM NaF, 1 mM Na4P2O7) and phosphatase (2 mM Na3VO4) inhibitors. The supernatant fractions obtained after centrifuging the samples at 10,000×g for 15 minutes at 4° C. were used in the binding assays. […] Protein concentrations were measured with the bicinchoninic acid (BCA) assay (Pierce, Rockford, Ill.).\n(§4) Competitive equilibrium binding assays were used to assess growth factor binding in relation to ic-STZ-treatment. […]\n(§5) All reactions were performed in 1.5 ml Eppendorff tubes, and the incubations were performed at 4° C. for 16 hours with gentle platform agitation. […] Each sample was counted for 1 minute in an LKB CompuGamma CS Gamma counter. Specific binding was calculated by subtracting fmols of non-specific binding, i.e. amount bound in the presence of excess cold ligand, from total fmols bound (absence of unlabeled competitive ligand). The binding assay results were analyzed using the GraphPad Prism 4 software (GraphPad Software, Inc., San Diego, Calif.)."}, "[3]": {"assay": "ic-STZ rat pup model: blood glucose, body and brain weight, pancreas and brain histopathology", "format": "in vivo, Long Evans rat", "method": "Control rats were identically injected with sterile saline. […] Andican et al., Clin. Exp. Pharmacol. Physiol. 32:663 (2005); Saad et al., Arch. Toxicol. (2005); Srinivasan et al., Pharmacol. Res. 52:313 (2005); Karabatas et al., Pancreas 30:318 (2005); Mabley et al., Pancreas 28:E39 (2004). […] The injections were completed within 3 minutes and the needle was withdrawn slowly from the brain.\nAt the termination point of the experiment, the rats were weighed and then sacrificed by isofluorane inhalation. Blood was obtained by cardiac puncture to measure glucose concentration using the OneTouch Ultra Blood Glucose Meter (Lifescan, Inc). The pancreases were harvested and immersion fixed in Histofix (Amresco Corp, Solon, Ohio) for paraffin embedding. Fresh brains were weighed and then cut in the coronal plane to obtain a ˜3 mm thick slice that flanked the infundibulum. The 3-mm brain slice was snap frozen between two slabs of dry ice, and stored at −80° C. for later RNA and protein extractions. The residual tissue was immersion fixed (Histofix) and embedded in paraffin for histopathological study and immunohistochemical staining. In approximately 20% of the cases, the brains were weighed, immersion fixed whole, and then sectioned in the coronal plane along standardized landmarks for paraffin embedding and histopathological sectioning.\nParaffin-embedded histological sections of pancreas (5 μm thick) and brain (8 μm thick) were stained with hematoxylin and eosin (H&E) and examined for histopathological lesions, i.e., inflammation, necrosis, and islet cell degeneration. […] As negative controls for the immunostaining reactions, either the primary antibody was omitted or non-relevant monoclonal antibody to Hepatitis B virus was used in place of the relevant antibody.\nPrior to immunostaining, the deparaffinized, re-hydrated tissue sections were sequentially treated with 0.1 mg/ml saponin in phosphate buffered saline (10 mM sodium phosphate, 0.9% NaCl, pH 7.4; PBS), for 20 minutes at room temperature. […] After overnight incubation at 4° C. with antibodies diluted to 0.1-1 μg/ml (according to the manufacturer's recommendations), immunoreactivity was detected using rat tissue-pre-adsorbed biotinylated secondary antibodies, avidin biotin horseradish peroxidase complex (ABC) reagents, and diaminobenzidine as the chromogen (Vector Laboratories, Burlingame, Calif.). de la Monte et al., Lab. Invest. 80:1323 (2000). The sections were counterstained with hematoxylin and preserved with mounting medium and coverglass. All sections were examined under code."}, "[4]": {"system": "cerebral cortex and hippocampus glucose and glycogen metabolism", "settings": "adult rats, intracerebroventricular injection; cited from earlier work"}, "IGF-II receptor": {"system": "IGF-II receptor", "format": "in vivo, Long Evans rat", "settings": "temporal lobe membrane extracts", "quoted_text": "as §3, §4, §5"}}, "data": [{"smiles": "CC(C)(Sc1ccc(CCN(CCCCC2CCCCC2)C(=O)NC2CCCCC2)cc1)C(=O)O", "note": "[PPAR-α agonist, GW7647]", "values": [{"measurement": "BMAX, insulin receptor saturation binding in brains of treated rats", "setting": "insulin receptor [1]", "result": 1.172, "unit": "fmol/mg protein"}, {"measurement": "mean insulin receptor binding", "setting": "insulin receptor [1]", "result": "significantly increased"}, {"measurement": "BMAX, IGF-1 receptor saturation binding in brains of treated rats", "setting": "IGF-I receptor", "result": 0.6361, "unit": "fmol/mg protein"}]}, {"smiles": "CC(C)C[C@H](NC(=O)OCC1c2ccccc2-c2ccccc21)C(=O)O", "note": "[PPAR-γ agonist, F-L-Leu]", "values": [{"measurement": "BMAX, insulin receptor saturation binding in brains of treated rats", "setting": "insulin receptor [1]", "result": 1.127, "unit": "fmol/mg protein"}, {"measurement": "mean insulin receptor binding", "setting": "insulin receptor [1]", "result": "significantly increased"}, {"measurement": "BMAX, IGF-1 receptor saturation binding in brains of treated rats", "setting": "IGF-I receptor", "result": 3.123, "unit": "fmol/mg protein"}, {"measurement": "IGF-I receptor binding", "setting": "IGF-I receptor", "result": "significantly increased"}, {"measurement": "BMAX for IGF-I receptor (in words) vs ic-STZ group", "setting": "IGF-I receptor; rat, in vivo", "result": "increased"}]}, {"smiles": "CCCc1c(OCCCOc2ccc(OCC(=O)O)cc2)ccc(C(C)=O)c1O", "note": "[PPAR-δ agonist, L-165,041]", "values": [{"measurement": "BMAX, insulin receptor saturation binding in brains of treated rats", "setting": "insulin receptor [1]", "result": 2.186, "unit": "fmol/mg protein"}, {"measurement": "insulin receptor binding", "setting": "insulin receptor [1]; hypothalamus", "result": "significantly increased"}, {"measurement": "mean insulin receptor binding", "setting": "insulin receptor [1]", "result": "significantly increased"}, {"measurement": "BMAX, IGF-1 receptor saturation binding in brains of treated rats", "setting": "IGF-I receptor", "result": 0.7399, "unit": "fmol/mg protein"}, {"measurement": "IGF-I receptor binding", "setting": "IGF-I receptor", "result": "significantly increased"}]}, {"smiles": "CN(N=O)C(=O)NC1C(O)OC(CO)C(O)C1O", "note": "(stereo not drawn) [STZ]", "values": [{"measurement": "reduction of mean equilibrium binding to the insulin receptor vs control", "setting": "insulin receptor [2]", "result": "approximately 85%"}, {"measurement": "BMAX, insulin receptor saturation binding in brains of treated rats", "setting": "insulin receptor [1]", "result": 0.8421, "unit": "fmol/mg protein"}, {"measurement": "steady-state insulin receptor binding", "setting": "insulin receptor [1]; temporal lobe, hypothalamus, cerebellum", "result": "significantly reduced"}, {"measurement": "BMAX, IGF-1 receptor saturation binding in brains of treated rats", "setting": "IGF-I receptor", "result": 1.204, "unit": "fmol/mg protein"}, {"measurement": "binding to IGF-I receptors", "setting": "IGF-I receptor; hypothalamus or cerebellum", "result": "not in the hypothalamus or cerebellum"}, {"measurement": "binding to IGF-I receptors", "setting": "IGF-I receptor; temporal lobe", "result": "significantly reduced"}, {"measurement": "hemorrhage in brain", "setting": "[3]; 40 mg/kg ic-STZ", "result": "multiple small foci of acute subarachnoid hemorrhage"}, {"measurement": "insulin immunoreactivity in pancreatic islets", "setting": "[3]; 40 mg/kg ic-STZ", "result": "prominent insulin immunoreactivity in all pancreatic islets"}, {"measurement": "pancreas histopathology", "setting": "[3]; 40 mg/kg ic-STZ", "result": "no evidence of inflammation, necrosis, or islet cell degeneration"}, {"measurement": "size of cerebral and cerebellar hemispheres", "setting": "[3]; 40 mg/kg ic-STZ", "result": "conspicuously reduced in size"}, {"measurement": "mean blood glucose level vs control", "setting": "[3]; 40 mg/kg ic-STZ, day 14", "result": "significantly lower than control"}, {"measurement": "mean body weight vs control", "setting": "[3]; 40 mg/kg ic-STZ, day 14", "result": "significantly reduced"}, {"measurement": "mean brain weight vs control", "setting": "[3]; 40 mg/kg ic-STZ, day 14", "result": "significantly reduced relative to control"}, {"measurement": "random blood glucose concentration (none of the rats above)", "setting": "[3]; 40 mg/kg ic-STZ, day 14", "result": "≤ 180", "unit": "mg/dL"}, {"measurement": "survival of the injections", "setting": "[3]; 3-day-old pups, bilateral ic injection", "result": "All animals survived"}, {"measurement": "chronic reduction in glucose and glycogen metabolism", "setting": "[4]", "result": "10-30%"}, {"measurement": "IGF-II binding vs control", "setting": "IGF-II receptor", "result": "significantly reduced"}]}]}
